From ChEMBL document CHEMBL5375973, “Design and Synthesis of Novel Near-Infrared Fluorescence Probes Based on an Open Conformation of a Cytochrome P450 1B1 Complex for Molecular Imaging of Colorectal Tumors” (J Med Chem, 2023)
Values belong to the compound of their own block, whether it stands above or below them.

How the values were obtained:
Cytochrome P450 1B1 [1] = target: T1, Cytochrome P450 1B1 (Homo sapiens, UniProt Q16678); experiment: Inhibition of recombinant CYP1B1 (unknown origin) using 7-ethoxyresorufin as substrate preincubated for 5 mins followed by NADPH addition incubated for 35 mins by EROD assay; type: ADME
T1 sequence (Q16678 whole entry): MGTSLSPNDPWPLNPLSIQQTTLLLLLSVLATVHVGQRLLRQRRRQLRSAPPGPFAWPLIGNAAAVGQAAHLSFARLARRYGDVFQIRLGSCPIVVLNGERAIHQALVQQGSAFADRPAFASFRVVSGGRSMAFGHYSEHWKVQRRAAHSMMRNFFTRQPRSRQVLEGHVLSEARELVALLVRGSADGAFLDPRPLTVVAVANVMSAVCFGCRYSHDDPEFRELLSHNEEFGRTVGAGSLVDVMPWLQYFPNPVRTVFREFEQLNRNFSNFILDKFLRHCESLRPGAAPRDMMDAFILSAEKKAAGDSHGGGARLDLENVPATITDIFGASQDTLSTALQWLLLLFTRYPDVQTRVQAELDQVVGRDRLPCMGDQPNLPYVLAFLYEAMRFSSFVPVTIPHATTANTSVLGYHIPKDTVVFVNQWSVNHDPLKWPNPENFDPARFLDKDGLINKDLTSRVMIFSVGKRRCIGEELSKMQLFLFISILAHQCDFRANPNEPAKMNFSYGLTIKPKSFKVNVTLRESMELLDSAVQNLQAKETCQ

Cytochrome P450 1B1 [2] = target: T1, Cytochrome P450 1B1; experiment: Binding affinity to CYP1B1 in human HCT-15 cells assessed as apparent dissociation constant incubated for 1 hr by flow cytometry analysis; type: ADME, cell-based; settings: read-out: Kd(app)
HFF-1 = experiment: Cytotoxicity against human HFF-1 cells at 1 to 10 uM incubated for 24 hrs by MTT assay; type: toxicity, cell-based; settings: hff-1, 24 h, dose 1-10 µM
[3] = Stability of the compound assessed as drug degradation observed after 24 hrs by HPLC analysis; type: physicochemical
HCT-15 = experiment: Cytotoxicity against human HCT-15 cells assessed as cell viability at 10 uM incubated for 24 hrs by MTT assay; type: functional; settings: read-out: Activity
Cytochrome P450 1A2 = target: T2, Cytochrome P450 1A2 (Homo sapiens, UniProt P05177); experiment: Inhibition of recombinant CYP1A2 (unknown origin) using 7-ethoxyresorufin as substrate preincubated for 5 mins followed by NADPH addition incubated for 50 mins by EROD assay; type: ADME
T2 sequence (P05177 whole entry): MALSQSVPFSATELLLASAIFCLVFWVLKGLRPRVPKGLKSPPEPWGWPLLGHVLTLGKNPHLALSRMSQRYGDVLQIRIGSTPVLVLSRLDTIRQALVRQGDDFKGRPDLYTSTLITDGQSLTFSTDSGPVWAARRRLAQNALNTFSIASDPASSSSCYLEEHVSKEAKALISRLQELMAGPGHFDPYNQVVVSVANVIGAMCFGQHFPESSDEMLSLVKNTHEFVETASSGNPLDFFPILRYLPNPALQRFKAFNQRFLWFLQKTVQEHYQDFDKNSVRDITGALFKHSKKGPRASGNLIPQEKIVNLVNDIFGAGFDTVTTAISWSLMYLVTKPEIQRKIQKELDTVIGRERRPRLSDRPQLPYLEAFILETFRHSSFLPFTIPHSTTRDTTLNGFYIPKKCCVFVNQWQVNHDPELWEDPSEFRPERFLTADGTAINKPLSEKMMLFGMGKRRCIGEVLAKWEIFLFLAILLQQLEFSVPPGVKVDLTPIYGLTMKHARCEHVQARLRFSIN

[4] = Drug distribution in BALB/C mouse xenografted with human HCT-15 cells assessed as increase in photoacoustic signal in tumor at 12 nmol at iv administration observed after 2 hrs by photoacoustic imaging analysis; type: ADME, organism-based, Neoplasm; settings: in vivo
Cytochrome P450 1B1 [5] = target: T1, Cytochrome P450 1B1; experiment: Binding affinity to CYP1B1 in human HCT-15 cells assessed as increase in fluorescence signal at cytoplasm at 0.5 to 1 uM incubated for 1 hr by DAPI staining based confocal laser scanning microscopic analysis; type: ADME, cell-based; settings: hct-15, 1 h, dose 0.5-1 µM
[6] = Drug distribution in BALB/C mouse xenografted with human HCT-15 cells assessed as increase in fluorescence intensity in liver at 12 nmol at iv administration observed after 24 hrs by IVIS imaging analysis; type: ADME, organism-based; settings: in vivo
[7] = Drug distribution in BALB/C mouse xenografted with human HCT-15 cells assessed as increase in fluorescence intensity in tumor at 12 nmol at iv administration observed after 6 hr by IVIS imaging analysis; type: ADME, organism-based, Neoplasm; settings: in vivo
[8] = Drug distribution in BALB/C mouse xenografted with human HCT-15 cells assessed as increase in photoacoustic signal in tumor at 12 nmol at iv administration observed after 6 hrs by photoacoustic imaging analysis; type: ADME, organism-based, Neoplasm; settings: in vivo
Cytochrome P450 1B1 [9] = target: T1, Cytochrome P450 1B1; experiment: Binding affinity to CYP1B1 in human HFF-1 cells assessed as increase in fluorescence signal at 0.5 to 1 uM incubated for 1 hr by DAPI staining based confocal laser scanning microscopic analysis; type: ADME, cell-based; settings: hff-1, 1 h, dose 0.5-1 µM
[10] = Drug distribution in BALB/C mouse xenografted with human HCT-15 cells assessed as increase in fluorescence intensity in tumor at 12 nmol at iv administration in presence of CYP1B1 inhibitor, ANF observed after 2 to 6 hrs by IVIS imaging analysis; type: ADME, organism-based, Neoplasm; settings: in vivo, time 2-6 hrs
Cytochrome P450 1B1 [11] = target: T1, Cytochrome P450 1B1; experiment: Binding affinity to CYP1B1 in human HCT-15 cells assessed as increase in fluorescence signal at 0.5 to 1 uM incubated for 1 hr in presence of compound 14c by DAPI staining based confocal laser scanning microscopic analysis; type: ADME, cell-based; settings: hct-15, 1 h, dose 0.5-1 µM
Cytochrome P450 1B1 [12] = target: T1, Cytochrome P450 1B1; experiment: Binding affinity to CYP1B1 in human HCT-15 cells assessed as increase in fluorescence signal at nucleus at 0.5 to 1 uM incubated for 1 hr by DAPI staining based confocal laser scanning microscopic analysis; type: ADME, cell-based; settings: hct-15, 1 h, dose 0.5-1 µM
[13] = Drug distribution in BALB/C mouse xenografted with human HCT-15 cells by measuring fluorescence intensity ratio in tumor at 12 nmol at iv administration observed after 4 hrs by IVIS imaging analysis; type: ADME, organism-based, Neoplasm; settings: in vivo
Cytochrome P450 1B1 [14] = target: T1, Cytochrome P450 1B1; experiment: Binding affinity to CYP1B1 in human HCT-15 cells assessed as increase in fluorescence signal at 0.5 to 1 uM incubated for 1 hr by DAPI staining based confocal laser scanning microscopic analysis; type: ADME, cell-based; settings: hct-15, 1 h, dose 0.5-1 µM
[15] = Drug distribution in BALB/C mouse xenografted with human HCT-15 cells by measuring fluorescence intensity ratio in tumor at 12 nmol at iv administration in presence of CYP1B1 inhibitor, ANF observed after 4 hrs by IVIS imaging analysis; type: ADME, organism-based, Neoplasm; settings: in vivo
[16] = Drug distribution in BALB/C mouse xenografted with human HCT-15 cells by measuring fluorescence intensity ratio in tumor at 12 nmol at iv administration in presence of CYP1B1 inhibitor, ANF observed after 24 hrs by IVIS imaging analysis; type: ADME, organism-based, Neoplasm; settings: in vivo
[17] = Drug distribution in BALB/C mouse xenografted with human HCT-15 cells by measuring fluorescence intensity ratio in muscle tissue at 12 nmol at iv administration in presence of CYP1B1 inhibitor, ANF observed after 24 hrs by IVIS imaging analysis; type: ADME, organism-based; settings: in vivo
[18] = Drug distribution in BALB/C mouse xenografted with human HCT-15 cells by measuring fluorescence intensity ratio in tumor at 12 nmol at iv administration observed after 2 hrs by IVIS imaging analysis; type: ADME, organism-based, Neoplasm; settings: in vivo
[19] = Drug distribution in BALB/C mouse xenografted with human HCT-15 cells by measuring fluorescence intensity ratio in tumor at 12 nmol at iv administration observed after 24 hrs by IVIS imaging analysis; type: ADME, organism-based, Neoplasm; settings: in vivo
[20] = Drug distribution in BALB/C mouse xenografted with human HCT-15 cells by measuring fluorescence intensity ratio in tumor at 12 nmol at iv administration in presence of CYP1B1 inhibitor, ANF observed after 2 hrs by IVIS imaging analysis; type: ADME, organism-based, Neoplasm; settings: in vivo
[21] = Drug distribution in BALB/C mouse xenografted with human HCT-15 cells by measuring fluorescence intensity ratio in tumor at 12 nmol at iv administration in presence of CYP1B1 inhibitor, ANF observed after 6 hrs by IVIS imaging analysis; type: ADME, organism-based, Neoplasm; settings: in vivo
[22] = Drug distribution in BALB/C mouse xenografted with human HCT-15 cells assessed as increase in photoacoustic signal in tumor at 12 nmol at iv administration observed after 24 hrs by photoacoustic imaging analysis; type: ADME, organism-based, Neoplasm; settings: in vivo
[23] = Drug distribution in BALB/C mouse xenografted with human HCT-15 cells by measuring fluorescence intensity ratio in muscle tissue at 12 nmol at iv administration observed after 24 hrs by IVIS imaging analysis; type: ADME, organism-based; settings: in vivo
[24] = Drug distribution in BALB/C mouse xenografted with human HCT-15 cells assessed as increase in fluorescence intensity in tumor at 12 nmol at iv administration observed after 2 hr by IVIS imaging analysis; type: ADME, organism-based, Neoplasm; settings: in vivo
[25] = Drug distribution in BALB/C mouse xenografted with human HCT-15 cells by measuring fluorescence intensity ratio in tumor at 12 nmol at iv administration observed after 6 hrs by IVIS imaging analysis; type: ADME, organism-based, Neoplasm; settings: in vivo

IC50 (Cytochrome P450 1B1 [1]): 95 nM
Compound: COc1ccc(OC)c2c1c(OC)cc1c(=O)cc(-c3cc(O)cc(F)c3)oc12

IC50 (Cytochrome P450 1B1 [1]): 2.47 nM
Compound: COc1ccc(OC)c2c1c(OC)cc1c(=O)cc(-c3ccc(N)c(F)c3)oc12

Kd (Cytochrome P450 1B1 [2]): 168 nM
Stability [3]: Stable
Compound: CCN1/C(=C/C=C/C=C/C2=[N+](CCCCCC(=O)NCCOCCOCCOCC(=O)Nc3cc(F)cc(-c4cc(=O)c5cc(OC)c6c(OC)ccc(OC)c6c5o4)c3)c3ccc4c(S(=O)(=O)[O-])cc(S(=O)(=O)O)cc4c3C2(C)C)C(C)(C)c2c1ccc1c(S(=O)(=O)O)cc(S(=O)(=O)O)cc21
Activity (HFF-1): Non-Toxic
viability at 10 µM (HCT-15): > 80%

IC50 (Cytochrome P450 1A2): 1460 nM
Compound: COc1ccc(OC)c2c1c(OC)cc1c(=O)cc(-c3cc(F)cc(NC(=O)CCCCCCN)c3)oc12

IC50 (Cytochrome P450 1A2): > 2000 nM
Compound: COc1ccc(OC)c2c1c(OC)cc1c(=O)cc(-c3cc(F)cc(NC(=O)CCCCCCCCN)c3)oc12

IC50 (Cytochrome P450 1B1 [1]): 113 nM
Compound: COc1ccc(OC)c2c1c(OC)cc1c(=O)cc(-c3ccc(O)c(F)c3)oc12

IC50 (Cytochrome P450 1A2): 1600 nM
Compound: COc1ccc(OC)c2c1c(OC)cc1c(=O)cc(-c3cc(F)cc(NC(=O)COCCN)c3)oc12

Drug uptake [4]: Active
Activity (Cytochrome P450 1B1 [5]): Active
Drug uptake [6]: Active
Drug uptake [7]: Active
Drug uptake [8]: Active
Activity (Cytochrome P450 1B1 [9]): Not Active
Drug uptake [10]: Not Active
Kd (Cytochrome P450 1B1 [2]): 93.7 nM
Activity (Cytochrome P450 1B1 [11]): Not Active
Activity (Cytochrome P450 1B1 [12]): Active
Ratio [13]: 1.95
Activity (Cytochrome P450 1B1 [14]): Active
Ratio [15]: 1.19
Stability [3]: Stable
Ratio [16]: 1.34
Ratio [17]: 12.1
Ratio [18]: 1.92
Ratio [19]: 1.69
Ratio [20]: 1.06
Ratio [21]: 1.32
Drug uptake [22]: Not Active
Ratio [23]: 26.51
Drug uptake [24]: Active
Ratio [25]: 2.15
Compound: CCN1/C(=C/C=C/C=C/C2=[N+](CCCCCC(=O)NCCOCCOCCOCCOc3cc(F)cc(-c4cc(=O)c5cc(OC)c6c(OC)ccc(OC)c6c5o4)c3)c3ccc4c(S(=O)(=O)[O-])cc(S(=O)(=O)O)cc4c3C2(C)C)C(C)(C)c2c1ccc1c(S(=O)(=O)O)cc(S(=O)(=O)O)cc21
Activity (HFF-1): Non-Toxic
viability at 10 µM (HCT-15): > 80%
